Data on eight compounds can be found in ChEMBL document CHEMBL5053538, “Precursor-Directed Biosynthesis of Talaroenamine Derivatives Using a Yellow River Wetland-Derived Penicillium malacosphaerulum” (2021).

Type in all cases: functional
The subject of one experiment is Escherichia coli. Kind of experiment: Antimicrobial activity against Escherichia coli assessed as inhibition of bacterial growth incubated for 24 hrs by agar dilution method. Background: In agar dilution the substance is mixed into plates at graded concentrations.
A further experiment deals with Pseudomonas. Kind of experiment: Antimicrobial activity against Pseudomonas assessed as inhibition of bacterial growth incubated for 24 hrs by agar dilution method.
Another experiment concerns Proteus sp. Kind of experiment: Antimicrobial activity against Proteus sp. assessed as inhibition of bacterial growth incubated for 24 hrs by agar dilution method. As to conditions: Proteus sp. (in: enterobacteria).
Another experiment concerns Mycolicibacterium phlei. As to the kind of experiment: Antimicrobial activity against Mycobacterium phlei assessed as inhibition of bacterial growth incubated for 24 hrs by agar dilution method.
The next experiment has as its system Bacillus cereus. Kind of experiment: Antimicrobial activity against Bacillus cereus assessed as inhibition of bacterial growth incubated for 24 hrs by agar dilution method.
The subject of a further experiment is Bacillus subtilis. As to the kind of experiment: Antimicrobial activity against Bacillus subtilis assessed as inhibition of bacterial growth incubated for 24 hrs by agar dilution method.
Another experiment concerns Acinetobacter baumannii. As to the kind of experiment: Antimicrobial activity against Acinetobacter baumannii assessed as inhibition of bacterial growth incubated for 24 hrs by agar dilution method.
Another experiment relates to Edwardsiella tarda. As to the kind of experiment: Antimicrobial activity against Edwardsiella tarda assessed as inhibition of bacterial growth incubated for 24 hrs by agar dilution method.

In brackets after ≈: the same amount, converted by molar mass. Some results are limits rather than exact numbers.

The MIC is the lowest concentration found to suppress growth. For `CC1=CC(=O)[C@@](C)(O)C(=O)/C1=C\Nc1ccc(F)c([N+](=O)[O-])c1`, the MIC with Escherichia coli, in the experiment on Pseudomonas, in the experiment on Proteus sp., with Mycolicibacterium phlei, in the experiment on Bacillus cereus and in the experiment on Bacillus subtilis was greater than 10 µg/mL each time. The MIC in the experiment on Acinetobacter baumannii and in the experiment with Edwardsiella tarda was greater than 10 µg/mL each time.

As for `CC1=CC(=O)[C@@](C)(O)C(=O)/C1=C\Nc1ccc(Br)cc1F`, the MIC was 8.83 µg/mL (≈ 24.9 µM) with Escherichia coli; greater than 10 µg/mL with Pseudomonas; greater than 10 µg/mL in the experiment with Proteus sp.; greater than 10 µg/mL in the experiment with Mycolicibacterium phlei; greater than 10 µg/mL with Bacillus cereus; greater than 10 µg/mL with Bacillus subtilis. The MIC in the experiment on Acinetobacter baumannii and in the experiment on Edwardsiella tarda was greater than 10 µg/mL each time.

With `CC1=CC(=O)[C@@](C)(O)C(=O)/C1=C\Nc1cccc(OC(F)(F)F)c1`, the MIC is 4.26 µg/mL (≈ 12.5 µM) with Escherichia coli; greater than 10 µg/mL with Pseudomonas; 2.13 µg/mL (≈ 6.24 µM) in the experiment on Proteus sp.; greater than 10 µg/mL in the experiment with Mycolicibacterium phlei; 2.13 µg/mL (≈ 6.24 µM) with Bacillus cereus; 2.13 µg/mL (≈ 6.24 µM) in the experiment with Bacillus subtilis. In addition, the MIC in the experiment with Acinetobacter baumannii and in the experiment on Edwardsiella tarda was greater than 10 µg/mL each time.

Turning to `CC1=CC(=O)[C@@](C)(O)C(=O)/C1=C\Nc1ccccc1`, the MIC in the experiment on Escherichia coli, in the experiment with Pseudomonas, in the experiment on Proteus sp., in the experiment with Mycolicibacterium phlei, in the experiment on Bacillus cereus and with Bacillus subtilis was greater than 10 µg/mL in each case. Further, the MIC with Acinetobacter baumannii and in the experiment with Edwardsiella tarda was greater than 10 µg/mL each time.

Turning to `CC1=CC(=O)[C@@](C)(O)C(=O)/C1=C\Nc1cc(F)c(F)c(F)c1`, the minimal inhibitory concentration (MIC) was greater than 10 µg/mL with Escherichia coli; 7.76 µg/mL (≈ 24.9 µM) with Pseudomonas; greater than 10 µg/mL in the experiment with Proteus sp.; greater than 10 µg/mL in the experiment on Mycolicibacterium phlei; greater than 10 µg/mL in the experiment on Bacillus cereus; greater than 10 µg/mL with Bacillus subtilis. The MIC in the experiment on Acinetobacter baumannii and in the experiment on Edwardsiella tarda was greater than 10 µg/mL in each case.

On to `CC1=CC(=O)[C@@](C)(O)C(=O)/C1=C\Nc1ccc(Br)cc1`, for which the minimum inhibitory concentration (MIC) with Escherichia coli, in the experiment with Pseudomonas, in the experiment with Proteus sp., in the experiment with Mycolicibacterium phlei, with Bacillus cereus and with Bacillus subtilis was greater than 10 µg/mL throughout. The MIC in the experiment on Acinetobacter baumannii and in the experiment on Edwardsiella tarda was greater than 10 µg/mL each time.

For `CC1=CC(=O)[C@@](C)(O)C(=O)/C1=C\Nc1ccc(C)cc1`, the MIC in the experiment on Escherichia coli was 6.78 µg/mL (≈ 25 µM); in the experiment with Pseudomonas it was greater than 10 µg/mL; in the experiment with Proteus sp. it was 6.78 µg/mL (≈ 25 µM); in the experiment with Mycolicibacterium phlei, greater than 10 µg/mL; in the experiment with Bacillus cereus, 0.85 µg/mL (≈ 3.13 µM); in the experiment on Bacillus subtilis, 6.78 µg/mL (≈ 25 µM). Besides, the minimum inhibitory concentration (MIC) in the experiment with Acinetobacter baumannii and in the experiment with Edwardsiella tarda was greater than 10 µg/mL throughout.

In the case of `O=C(O)c1cn(C2CC2)c2cc(N3CCNCC3)c(F)cc2c1=O` [CIPROFLOXACIN], the MIC in the experiment with Pseudomonas was 1.04 µg/mL (≈ 3.14 µM); in the experiment on Proteus sp. it was 0.06 µg/mL (≈ 0.181 µM); in the experiment on Mycolicibacterium phlei, 0.26 µg/mL (≈ 0.785 µM); with Bacillus cereus, 0.26 µg/mL (≈ 0.785 µM); with Bacillus subtilis, 0.06 µg/mL (≈ 0.181 µM); with Acinetobacter baumannii, 2.07 µg/mL (≈ 6.25 µM). In addition, the MIC in the experiment with Edwardsiella tarda is 0.02 µg/mL (≈ 0.0604 µM).
